{
  "source": "PubChem BioAssay AID623940",
  "about": "(Vanderbilt Specialized Chemistry Center, 2012)",
  "note": "Calls of active or inactive are those of the source.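 The calls were made as follows: active = a response that changes with dose, reported with a potency and a percent of the peak acetylcholine response; inactive = the rest.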",
  "data": [
    {"biological_target": "Muscarinic acetylcholine receptor M1 (Rattus norvegicus) (UniProt P08482)", "sequence (P08482 whole entry, looked up)": "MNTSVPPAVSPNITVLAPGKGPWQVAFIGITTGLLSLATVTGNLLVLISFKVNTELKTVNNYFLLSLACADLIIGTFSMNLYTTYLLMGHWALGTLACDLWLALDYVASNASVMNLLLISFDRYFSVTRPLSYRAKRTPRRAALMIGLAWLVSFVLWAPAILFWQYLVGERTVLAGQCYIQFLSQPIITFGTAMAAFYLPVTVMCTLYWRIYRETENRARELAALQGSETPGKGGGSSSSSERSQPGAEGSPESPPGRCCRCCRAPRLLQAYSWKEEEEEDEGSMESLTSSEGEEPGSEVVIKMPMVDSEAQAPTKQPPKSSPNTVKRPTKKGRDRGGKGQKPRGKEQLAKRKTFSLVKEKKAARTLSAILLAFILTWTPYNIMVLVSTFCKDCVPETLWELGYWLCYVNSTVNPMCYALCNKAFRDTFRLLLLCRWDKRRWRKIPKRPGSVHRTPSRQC", "assay": "off-target potentiation of rat M1 ACh response – CHO cells, Fluo-4 calcium, ACh EC20, selectivity assay for M4 PAM optimization project, SAR follow-up (AID 623940)", "settings": "CHO rat M1, Fluo-4 calcium", "units": {"EC50": "nM"}, "values": [
      {"smiles": "Cc1nc2sc(C(=O)NC3CC3)c(N)c2c(C)c1Cl", "EC50": 943},
      {"smiles": "Cc1nc2sc(C(=O)NCc3ccccc3)c(N)c2c(C)c1Cl", "outcome": "inactive"},
      {"smiles": "Cc1nc2sc(C(=O)NCc3ccc4c(c3)OCO4)c(N)c2c(C)c1Cl", "outcome": "inactive"},
      {"smiles": "Cc1nc2sc(C(=O)NCc3ccncc3)c(N)c2c(C)c1Cl", "outcome": "inactive"},
      {"smiles": "Cc1nc2sc(C(=O)NCc3cccnc3)c(N)c2c(C)c1Cl", "outcome": "inactive"}
    ]},
    {"biological_target": "Muscarinic acetylcholine receptor M1 (Rattus norvegicus) (UniProt P08482)", "assay": "off-target potentiation of rat M1 ACh response – CHO cells, Fluo-4 calcium, ACh EC20, selectivity assay for M4 PAM optimization project, SAR follow-up (AID 623940)", "settings": "CHO rat M1, Fluo-4 calcium, at 30 µM (top of the series)", "values": [
      {"smiles": "Cc1nc2sc(C(=O)NCCc3ccncc3)c(N)c2c(C)c1Cl", "percent of ACh max response": "inactive"},
      {"smiles": "Cc1nc2sc(C(=O)NCc3ccncn3)c(N)c2c(C)c1Cl", "percent of ACh max response": "inactive"},
      {"smiles": "COc1ccc(C)c2sc(NC(=O)c3ccncc3)nc12", "percent of ACh max response": "inactive"},
      {"smiles": "Cc1nc2sc(C(=O)NCc3cccc(F)c3F)c(N)c2c(C)c1Cl", "percent of ACh max response": "inactive"},
      {"smiles": "Cc1nc2sc(C(=O)NCc3nccs3)c(N)c2c(C)c1Cl", "percent of ACh max response": "inactive"}
    ]}
  ]
}
